These results are taken from patent US11825838B2, “Tricyclic carboxamides for controlling arthropods” (Bayer CropScience Aktiengesellschaft, priority 2017, dated 2023).

Type in all cases: in vivo
Experiment [1] deals with Anopheles gambiae strain RSPH (homozygot kdr). The experiment in a line: Anopheles test (ANPHGB surface treatment). As to conditions: application rate 100 mg/m^2, glazed tile, exposure 30 minutes, 24 hours after contact, read-out: efficacy (mortality). As for the experimental part: Anopheles Test (ANPHGB Surface Treatment)
Solvent: acetone+2000 ppm rapeseed oil methyl ester (RME)
To produce a suitable active compound formulation, the active compound is dissolved in the solvent (2 mg/ml). The active compound formulation is pipetted onto a glazed tile and, after it has dried off, adult mosquitoes of the species Anopheles gambiae strain RSPH (homozygot kdr) are placed onto the treated tile. The exposure time is 30 minutes.
24 hours after contact with the treated surface, mortality in % is determined. 100% means that all mosquitoes have been killed; 0% means that none of the mosquitoes have been killed.

Experiment [2] concerns Ctenocephalides felis. The experiment in a line: Ctenocephalides felis oral test. The settings on record: application rate 100 ppm in citrated cattle blood, after 2 days. Here is the method:
Ctenocephalides felis—Oral Test
(§1) Solvent: dimethyl sulfoxide
To produce a suitable active ingredient formulation, 10 mg of active ingredient are mixed with 0.5 ml of dimethyl sulfoxide. Dilution with citrated cattle blood gives the desired concentration.
About 20 unfed adult cat fleas (Ctenocephalides felis) are placed into a chamber which is closed at the top and bottom with gauze. A metal cylinder whose bottom end is closed with parafilm is placed onto the chamber. The cylinder contains the blood/active ingredient formulation, which can be imbibed by the fleas through the parafilm membrane.
After 2 days, the rate of extermination in % is determined. 100% means that all of the fleas have been killed; 0% means that none of the fleas have been killed.

The next experiment deals with Rhipicephalus sanguineus. The experiment in a line: Rhipicephalus sanguineus in vitro contact test with adult brown dog ticks. The settings on record: application rate 5 μg/cm^2 (=500 g/ha), after 48 h, adult dog ticks dead or moribund. As for the experimental part: Rhipicephalus sanguineus—In Vitro Contact Tests with Adult Brown Dog Ticks
(§2) For the coating of the test tubes, 9 mg of active ingredient are first dissolved in 1 ml of acetone p.a. and then diluted to the desired concentration with acetone p.a. 250 μl of the solution are distributed homogeneously on the inner walls and the base of a 25 ml glass tube by turning and rocking on an orbital shaker (rocking rotation at 30 rpm for 2 h). With 900 ppm of active ingredient solution and internal surface area 44.7 cm^2, given homogeneous distribution, an area-based dose of 5 μg/cm^2 is achieved.
After the solvent has evaporated off, the tubes are populated with 5-10 adult dog ticks (Rhipicephalus sanguineus), sealed with a perforated plastic lid and incubated in a horizontal position in the dark at room temperature and ambient humidity. After 48 h, efficacy is determined. To this end, the ticks are knocked to the base of the tube and incubated on a hotplate at 45-50° C. for not more than 5 min. Ticks which remain motionless on the base or move in such an uncoordinated manner that they are unable to deliberately avoid the heat by climbing upwards are considered to be dead or moribund.
An efficacy of 100% means that all the ticks were dead or moribund. 0% efficacy means that none of the ticks were harmed.

The test system of a further experiment is Boophilus microplus. The experiment in a line: Boophilus microplus injection test. The settings on record: application rate 20 μg/animal, assessed after 7 days by laying of fertile eggs. As for the experimental part:
Boophilus microplus—Injection Test
as §1
To produce a suitable active compound preparation, 10 mg of active compound are mixed with 0.5 ml of solvent and the concentrate is diluted to the desired concentration with solvent.
1 μl of the active ingredient solution is injected into the abdomen of 5 engorged adult female cattle ticks (Boophilus microplus). The animals are transferred into dishes and kept in a climate-controlled room.
(§3) Efficacy is assessed after 7 days by laying of fertile eggs. Eggs which are not visibly fertile are stored in a climate-controlled cabinet until the larvae hatch after about 42 days. An efficacy of 100% means that none of the ticks has laid any fertile eggs; 0% means that all the eggs are fertile.

The subject of a further experiment is Lucilia cuprina. The experiment in a line: Lucilia cuprina test. The settings on record: application rate 100 ppm, L1 larvae, after 2 days. Here is the method: as §1
(§4) To produce a suitable active ingredient formulation, 10 mg of active ingredient are mixed with 0.5 ml of dimethyl sulfoxide, and the concentrate is diluted with water to the desired concentration.
About 20 L1 larvae of the Australian sheep blowfly (Lucilia cuprina) are transferred into a test vessel containing minced horsemeat and the active compound preparation of the desired concentration.
After 2 days, the rate of extermination in % is determined. 100% means that all the larvae have been killed; 0% means that no larvae have been killed.

In the next experiment the test system is Spodoptera frugiperda. Description: Spodoptera frugiperda spray test (SPODFR). As to conditions: application rate 100 g/ha, spray, after 7 days; for pest or weed control at 100 g/ha: Spodoptera frugiperda, 168 h, read-out: efficacy. As for the experimental part:
Spodoptera frugiperda—Spray Test
(§5) To produce a suitable active ingredient formulation, 1 part by weight of active ingredient is dissolved with the specified parts by weight of solvent and made up to the desired concentration with water containing an emulsifier concentration of 1000 ppm. To produce further test concentrations, the formulation is diluted with emulsifier-containing water.
Leaf discs of maize (Zea mays) are sprayed with an active ingredient formulation of the desired concentration and, after drying, populated with caterpillars of the armyworm (Spodoptera frugiperda).
After 7 days, the efficacy in % is determined. 100% means that all the caterpillars have been killed; 0% means that no caterpillar has been killed.
Spodoptera frugiperda—Spray Test (SPODFR)
(§6) To produce a suitable active compound formulation, 1 part by weight of active compound is dissolved with the specified parts by weight of solvent and made up to the desired concentration with water containing an emulsifier concentration of 1000 ppm. To produce further test concentrations, the formulation is diluted with emulsifier-containing water.
Leaf discs of maize (Zea mays) are sprayed with an active compound formulation of the desired concentration and, after drying, populated with caterpillars of the armyworm (Spodoptera frugiperda).
After the desired time, the efficacy in % is determined. 100% means that all the caterpillars have been killed; 0% means that no caterpillar has been killed.

The subject of the next experiment is Phaedon cochleariae. Description: Phaedon cochleariae spray test (PHAECO). The settings on record: application rate 100 g/ha, spray, after 7 days; for pest or weed control at 100 g/ha: Phaedon cochleariae, 168 h, read-out: efficacy. As for the experimental part: Phaedon cochleariae—Spray Test
as §5
After 7 days, the efficacy in % is determined. 100% means that all the beetle larvae have been killed; 0% means that no beetle larvae have been killed.
Phaedon cochleariae—Spray Test (PHAECO)
as §6
Discs of Chinese cabbage leaves (Brassica pekinensis) are sprayed with an active compound formulation of the desired concentration and, after drying, populated with larvae of the mustard beetle (Phaedon cochleariae).
After the desired time, the efficacy in % is determined. 100% means that all the beetle larvae have been killed; 0% means that no beetle larvae have been killed.

In another experiment the test system is Musca domestica. Description: Musca domestica test. The settings on record: application rate 100 ppm, adult houseflies, after 2 days. Here is the method:
as §1, §4
Vessels containing a sponge treated with sugar solution and the active ingredient formulation of the desired concentration are populated with 10 adult houseflies (Musca domestica).
After 2 days, the rate of extermination in % is determined. 100% means that all of the flies have been killed; 0% means that none of the flies have been killed.

The test system of another experiment is Tetranychus urticae. The experiment in a line: Tetranychus urticae spray test, OP-resistant (TETRUR). The settings on record: spray, after 6 days. Here is the method: Tetranychus urticae—Spray Test, OP-Resistant
as §5
Discs of bean leaves (Phaseolus vulgaris) infested with all stages of the greenhouse red spider mite (Tetranychus urticae) are sprayed with an active compound preparation of the desired concentration.
After 6 days, the efficacy in % is determined. 100% means that all the spider mites have been killed; 0% means that no spider mites have been killed.
Tetranychus urticae—Spray Test; OP-Resistant (TETRUR)
as §6
Discs of bean leaves (Phaseolus vulgaris) infested with all stages of the greenhouse red spider mite (Tetranychus urticae) are sprayed with an active compound formulation of the desired concentration.
After the desired time, the efficacy in % is determined. 100% means that all the spider mites have been killed; 0% means that no spider mites have been killed.

The test system of experiment [3] is Myzus persicae. The experiment in a line: Myzus persicae spray test (MYZUPE). As to conditions: application rate 100 g/ha, spray, after 5 days. As for the experimental part: Myzus persicae—Spray Test
as §5
Discs of Chinese cabbage leaves (Brassica pekinensis) infested by all stages of the green peach aphid (Myzus persicae) are sprayed with an active compound preparation of the desired concentration.
(§7) After 5 days, the efficacy in % is determined. 100% means that all the aphids have been killed; 0% means that no aphids have been killed.
Myzus Persicae—Spray Test (MYZUPE)
as §6
Discs of Chinese cabbage leaves (Brassica pekinensis) infested with all stages of the green peach aphid (Myzus persicae) are sprayed with an active compound formulation of the desired concentration.
After the desired time, the efficacy in % is determined. 100% means that all the aphids have been killed; 0% means that no aphids have been killed.

The subject of experiment [4] is cattle ticks (Boophilus microplus) Parkhurst strain, SP-resistant. The experiment in a line: Boophilus microplus dip test. The settings on record: application rate 100 ppm, assessed after 7 days by laying of fertile eggs. As for the experimental part: Boophilus microplus—Dip Test
Test animals: cattle ticks (Boophilus microplus) Parkhurst strain, SP-resistant
as §1
10 mg of active ingredient are dissolved in 0.5 ml of dimethyl sulfoxide. To produce a suitable formulation, the active ingredient solution is diluted with water to the concentration desired in each case. This active ingredient formulation is pipetted into tubes. 8-10 engorged adult female cattle ticks (Boophilus microplus) are transferred into a further tube with holes. The tube is immersed into the active ingredient formulation, and all the ticks are completely wetted. After the liquid has run out, the ticks are transferred on filter discs into plastic dishes and stored in a climate-controlled room.
as §3

For experiment [5], the system named is Ctenocephalides felis. The experiment in a line: Ctenocephalides felis in vitro contact test with adult cat fleas. As to conditions: application rate 5 μg/cm^2 (=500 g/ha), after 48 h, adult cat fleas dead or moribund. Here is the method: Ctenocephalides felis—In Vitro Contact Tests with Adult Cat Fleas
as §2
After the solvent has evaporated off, the tubes are populated with 5-10 adult cat fleas (Ctenocephalides felis), sealed with a perforated plastic lid and incubated in a horizontal position at room temperature and ambient humidity. After 48 h, efficacy is determined. To this end, the tubes are stood upright and the fleas are knocked to the base of the tube. Fleas which remain motionless at the base or move in an uncoordinated manner are considered to be dead or moribund.
100% efficacy means that all the fleas were dead or moribund. 0% efficacy means that no fleas were harmed.

Experiment [6] deals with Myzus persicae. The experiment in a line: Myzus persicae oral test. The settings on record: application rate 4 ppm, after 5 days. As for the experimental part:
To produce a suitable active compound preparation, 1 part by weight of active compound is dissolved with the specified amounts by weight of solvent and made up to the desired concentration with water.
50 ul of the active compound preparation are transferred to microtiter plates and made up to a final volume of 200 μl with 150 μl of IPL41 insect medium (33%+15% sugar). Then the plates are sealed with parafilm through which a mixed population of the green peach aphid (Myzus persicae), which is located in a second microtiter plate, can pierce and absorb the solution.
as §7

As for `Cn1cc(-c2cnn(-c3c(Cl)cc(C(F)(C(F)(F)F)C(F)(F)F)cc3Cl)c2)cc1C(=O)NC1CC1` [I-T1-3, N-cyclopropyl-4-{1-[2,6-dichloro-4-(1,1,1,2,3,3,3-heptafluoropropan-2-yl)phenyl]-1H-pyrazol-4-yl}-1-methyl-1H-pyrrole-2-carboxamide], the mortality (as a rule, the share of the test organisms that died) at 100 mg/m2 in [1] fell in the range of 80 to 100%. Moreover, the “efficacy (rate of extermination)” value in the experiment on Ctenocephalides felis [2] and with Lucilia cuprina was 100% in each case. Further, the efficacy in the experiment on Rhipicephalus sanguineus and in the experiment on Boophilus microplus was 100% each time. Further, the pest or weed control at 100 g/ha in the experiment on Spodoptera frugiperda and with Phaedon cochleariae was 100% each time.

Take `N#CC1(NC(=O)c2cc(-c3cnn(-c4c(Cl)cc(C(F)(C(F)(F)F)C(F)(F)F)cc4Cl)c3)sc2Br)CC1` [I-T1-2]: the “efficacy (rate of extermination)” value with Musca domestica, in the experiment on Ctenocephalides felis [2] and with Lucilia cuprina was 100% in each case. Besides, the efficacy in the experiment with Tetranychus urticae (application rate 20 g/ha) worked out at 90%; in the experiment on Myzus persicae [3], 100%; with Rhipicephalus sanguineus it was 100%; in the experiment on Boophilus microplus, 100%; in the experiment on Spodoptera frugiperda it was 100%; in experiment [4], 100%. For the same compound, in the experiment with Phaedon cochleariae, the efficacy came to 100%.

Regarding `O=C(NC1CC1)c1csc(-c2cnn(-c3c(Cl)cc(C(F)(C(F)(F)F)C(F)(F)F)cc3Cl)c2)c1` [I-T1-12, N-cyclopropyl-5-{1-[2,6-dichloro-4-(1,1,1,2,3,3,3-heptafluoropropan-2-yl)phenyl]-1H-pyrazol-4-yl}thiophene-3-carboxamide], the “efficacy (rate of extermination)” value with Musca domestica, in the experiment on Ctenocephalides felis [2] and in the experiment on Lucilia cuprina was 100% throughout. In addition, the efficacy with Ctenocephalides felis [5], in the experiment on Rhipicephalus sanguineus and with Myzus persicae [6] was 100% throughout. The pest or weed control at 100 g/ha in the experiment with Spodoptera frugiperda and in the experiment on Phaedon cochleariae was 100% each time.

Turning to `Cc1sc(-c2cnn(-c3c(Cl)cc(C(F)(C(F)(F)F)C(F)(F)F)cc3Cl)c2)cc1C(=O)NC1(C#N)CC1` [I-T1-10], the “efficacy (rate of extermination)” value in the experiment with Musca domestica, in the experiment on Ctenocephalides felis [2] and in the experiment on Lucilia cuprina was 100% throughout. In addition, the efficacy with Tetranychus urticae (application rate 20 g/ha), in the experiment on Tetranychus urticae (application rate 100 g/ha), with Boophilus microplus, in the experiment with Spodoptera frugiperda, in the experiment with Myzus persicae [6] and in the experiment with Phaedon cochleariae was 100% in each case.

Take `O=C(NC1CC1)c1cc(-c2cnn(-c3c(Cl)cc(C(F)(C(F)(F)F)C(F)(F)F)cc3Cl)c2)sc1Cl` [I-T1-16, 2-chloro-N-cyclopropyl-5-{1-[2,6-dichloro-4-(1,1,1,2,3,3,3-heptafluoropropan-2-yl)phenyl]-1H-pyrazol-4-yl}thiophene-3-carboxamide]: the efficacy in the experiment with Tetranychus urticae (application rate 20 g/ha) is on record as 90%; in the experiment on Tetranychus urticae (application rate 100 g/ha) it was 100%; in the experiment on Myzus persicae [3], 100%; in the experiment on Myzus persicae [6] it was 100%. The pest or weed control at 100 g/ha with Spodoptera frugiperda and in the experiment with Phaedon cochleariae was 100% throughout.
